Measurements published in patent US8053553B2, “Targeting host proteinases as a therapeutic strategy against viral and bacterial pathogens” (Socpra Sciences Sante Et Humaines, priority 2007, dated 2011).
Read-outs that look alike come from different tables or passages of the source. Non-standard residues stand in square brackets, D forms with d. Residues, ends and D or L forms follow the SMILES beside them. Sar = CNCC(=O)O

Tests used:
[1] = molecular target: PC7; experiment: Ki, μM | PC7
[2] = molecular target: PC5/6; experiment: Ki, μM | PC5/6
[3] = molecular target: PC4; experiment: Ki, μM | PC4
[4] = molecular target: PACE4; experiment: Ki, μM | PACE4
[5] = molecular target: T1, furin (Homo sapiens, UniProt P09958); experiment: biochemical
T1 construct: made in house; host or cells: Drosophila S2 cells (Invitrogen expression system)
T1 sequence (P09958 108-794 limits assumed): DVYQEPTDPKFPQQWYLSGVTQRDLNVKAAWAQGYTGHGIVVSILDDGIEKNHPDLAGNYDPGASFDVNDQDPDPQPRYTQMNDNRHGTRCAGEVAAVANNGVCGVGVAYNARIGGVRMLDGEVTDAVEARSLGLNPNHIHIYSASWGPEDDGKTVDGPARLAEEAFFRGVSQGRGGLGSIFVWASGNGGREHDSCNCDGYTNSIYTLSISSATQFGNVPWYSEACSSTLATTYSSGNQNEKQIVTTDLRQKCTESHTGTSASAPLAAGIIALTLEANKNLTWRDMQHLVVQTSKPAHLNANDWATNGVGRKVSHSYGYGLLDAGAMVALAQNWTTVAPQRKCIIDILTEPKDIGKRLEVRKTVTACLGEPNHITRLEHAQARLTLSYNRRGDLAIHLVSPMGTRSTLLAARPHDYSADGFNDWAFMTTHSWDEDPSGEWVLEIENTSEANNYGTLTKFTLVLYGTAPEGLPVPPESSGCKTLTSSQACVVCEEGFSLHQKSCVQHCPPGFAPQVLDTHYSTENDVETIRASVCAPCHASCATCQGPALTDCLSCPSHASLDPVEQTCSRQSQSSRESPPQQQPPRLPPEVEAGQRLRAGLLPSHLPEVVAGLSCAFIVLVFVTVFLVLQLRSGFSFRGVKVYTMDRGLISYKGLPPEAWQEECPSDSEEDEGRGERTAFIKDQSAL

[6] = furin, Pyr-RTKR-AMC substrate, optimization of the inhibitory peptides (Table 3), read-out: Ki
[7] = furin, Pyr-RTKR-AMC substrate, alanine scanning mutagenesis of the H5 furin cleavage sequence (Table 2), read-out: Ki

Compound: TPQRARRRKKRT
- Ki [1]: 0.206 µM
- Ki [2]: 0.188 µM
- Ki [3]: 0.515 µM

Compound: TPQRARRRKKRF
- Ki [1]: 1.13 µM
- Ki [4]: 0.602 µM
- Ki [2]: 0.806 µM
- Ki [3]: 0.772 µM

Compound: TPQRARRRKKRW
- Ki [1]: 0.172 µM
- Ki [4]: 0.192 µM
- Ki [2]: 0.433 µM
- Ki [3]: 0.952 µM

Compound: TPQRARRRKKRY
- Ki [1]: 1.22 µM
- Ki [4]: 1.02 µM
- Ki [2]: 0.649 µM
- Ki [3]: 0.624 µM

Compound: C[C@H](NC(=O)[C@H](CCCNC(=N)N)NC(=O)[C@@H]1CCCN1C(=O)[C@@H](N)[C@@H](C)O)C(=O)N[C@@H](CCCNC(=N)N)C(=O)N[C@@H](CCCNC(=N)N)C(=O)N[C@@H](CCCNC(=N)N)C(=O)N[C@@H](CCCCN)C(=O)N[C@@H](CCCCN)C(=O)N[C@@H](CCCNC(=N)N)C(=O)N[C@H](C(N)=O)[C@@H](C)O (H-TPRARRRKKRT-NH2)
- Ki [1]: 0.152 µM
- Ki [4]: 0.162 µM
- Ki [2]: 0.232 µM
- Ki [3]: 0.441 µM

Compound: C[C@H](NC(=O)[C@H](CCCNC(=N)N)NC(=O)[C@H](CCC(N)=O)NC(=O)[C@@H]1CCCN1C(=O)[C@@H](N)[C@@H](C)O)C(=O)N[C@@H](CCCNC(=N)N)C(=O)N[C@@H](CCCNC(=N)N)C(=O)N[C@@H](CCCNC(=N)N)C(=O)N[C@@H](CCCCN)C(=O)N[C@@H](CCCCN)C(=O)N[C@@H](CCCNC(=N)N)C(=O)N[C@@H](CS)C(N)=O (H-TPQRARRRKKRC-NH2)
- Ki [5, 6]: > 100 nM

Compound: CC(C)[C@H](NC(=O)[C@H](CCCNC(=N)N)NC(=O)[C@H](C)NC(=O)[C@H](C)NC(=O)[C@H](CCCNC(=N)N)NC(=O)[C@H](CCCNC(=N)N)NC(=O)[C@H](CCCNC(=N)N)NC(=O)[C@H](CCC(=O)O)NC(=O)[C@H](CCCNC(=N)N)NC(=O)[C@@H]1CCCN1C(=O)[C@@H](N)[C@@H](C)O)C(N)=O (H-TPRERRRAARV-NH2)
- Ki [5, 7]: > 100 nM

Compound: C[C@H](NC(=O)[C@H](CCCNC(=N)N)NC(=O)[C@H](CCC(N)=O)NC(=O)[C@@H]1CCCN1C(=O)[C@@H](N)[C@@H](C)O)C(=O)N[C@@H](CCCNC(=N)N)C(=O)N[C@@H](CCCNC(=N)N)C(=O)N[C@@H](CCCNC(=N)N)C(=O)N[C@@H](CCCCN)C(=O)N[C@@H](CCCCN)C(=O)N[C@@H](CCCNC(=N)N)C(=O)N[C@@H](CCCNC(=N)N)C(N)=O (H-TPQRARRRKKRR-NH2)
- Ki [5, 6]: > 100 nM

Compound: C[C@H](NC(=O)[C@@H](N)[C@@H](C)O)C(=O)N[C@@H](CCCNC(=N)N)C(=O)N[C@@H](CCC(=O)O)C(=O)N[C@@H](CCCNC(=N)N)C(=O)N[C@@H](CCCNC(=N)N)C(=O)N[C@@H](CCCNC(=N)N)C(=O)N[C@@H](CCCCN)C(=O)N[C@@H](CCCCN)C(=O)N[C@@H](CCCNC(=N)N)C(=O)N[C@@H](CO)C(N)=O (H-TARERRRKKRS-NH2)
- Ki [5, 7]: > 100 nM

Compound: C[C@H](NC(=O)[C@H](CCC(=O)O)NC(=O)[C@H](CCCNC(=N)N)NC(=O)[C@@H]1CCCN1C(=O)[C@@H](N)[C@@H](C)O)C(=O)N[C@@H](CCCNC(=N)N)C(=O)N[C@@H](CCCNC(=N)N)C(=O)N[C@@H](CCCCN)C(=O)N[C@@H](CCCCN)C(=O)N[C@@H](CCCNC(=N)N)C(=O)N(C)CC(N)=O (H-TPREARRKKR[Sar]-NH2)
- Ki [5, 7]: > 100 nM

Compound: C[C@H](NC(=O)[C@H](CCCNC(=N)N)NC(=O)[C@H](CCCNC(=N)N)NC(=O)[C@H](CCCNC(=N)N)NC(=O)[C@H](CCC(=O)O)NC(=O)[C@H](CCCNC(=N)N)NC(=O)[C@@H]1CCCN1C(=O)[C@@H](N)[C@@H](C)O)C(=O)N[C@@H](CCCCN)C(=O)N[C@@H](CCCNC(=N)N)C(=O)N(C)CC(N)=O (H-TPRERRRAKR[Sar]-NH2)
- Ki [5, 7]: > 100 nM

Compound: C[C@@H](O)[C@H](N)C(=O)N1CCC[C@H]1C(=O)N[C@@H](CCC(N)=O)C(=O)N[C@@H](CCCNC(=N)N)C(=O)N[C@@H](CS)C(=O)N[C@@H](CCCNC(=N)N)C(=O)N[C@@H](CCCNC(=N)N)C(=O)N[C@@H](CCCNC(=N)N)C(=O)N[C@@H](CCCCN)C(=O)N[C@@H](CCCCN)C(=O)N[C@@H](CCCNC(=N)N)C(=O)NCC(N)=O
- Ki [5, 6]: > 100 nM

Compound: CC(C)[C@H](NC(=O)[C@H](CCCNC(=N)N)NC(=O)[C@H](CCCCN)NC(=O)[C@H](CCCCN)NC(=O)[C@H](C)NC(=O)[C@H](C)NC(=O)[C@H](CCCNC(=N)N)NC(=O)[C@H](CCC(=O)O)NC(=O)[C@H](CCCNC(=N)N)NC(=O)[C@@H]1CCCN1C(=O)[C@@H](N)[C@@H](C)O)C(N)=O (H-TPRERAAKKRV-NH2)
- Ki [5, 7]: > 100 nM

Compound: C[C@H](NC(=O)[C@H](C)NC(=O)[C@@H]1CCCN1C(=O)[C@@H](N)[C@@H](C)O)C(=O)N[C@@H](C)C(=O)N[C@@H](CCCNC(=N)N)C(=O)N[C@@H](CCCNC(=N)N)C(=O)N[C@@H](CCCCN)C(=O)N[C@@H](CCCCN)C(=O)N[C@@H](CCCNC(=N)N)C(N)=O (H-TPAAARRKKR-NH2)
- Ki [5, 7]: > 100 nM

Compound: TPRARRRKKRI
- Ki [1]: 0.135 µM
- Ki [4]: 0.026 µM
- Ki [2]: 0.492 µM
- Ki [3]: 0.562 µM

Compound: C[C@H](NC(=O)[C@H](C)NC(=O)[C@@H](N)[C@@H](C)O)C(=O)N[C@@H](CCC(=O)O)C(=O)N[C@@H](CCCNC(=N)N)C(=O)N[C@@H](CCCNC(=N)N)C(=O)N[C@@H](CCCNC(=N)N)C(=O)N[C@@H](CCCCN)C(=O)N[C@@H](CCCCN)C(=O)N[C@@H](CCCNC(=N)N)C(=O)N(C)CC(N)=O (H-TAAERRRKKR[Sar]-NH2)
- Ki [5, 7]: > 100 nM

Compound: CC(C)[C@H](NC(=O)[C@H](CCCNC(=N)N)NC(=O)[C@H](CCCCN)NC(=O)[C@H](CCCCN)NC(=O)[C@H](CCCNC(=N)N)NC(=O)[C@H](CCCNC(=N)N)NC(=O)[C@H](CCCNC(=N)N)NC(=O)[C@H](CCC(=O)O)NC(=O)[C@H](C)NC(=O)[C@H](C)NC(=O)[C@H](C)N)C(N)=O (H-AAAERRRKKRV-NH2)
- Ki [5, 7]: > 100 nM

Compound: C[C@H](N)C(=O)N[C@@H](C)C(=O)N[C@@H](C)C(=O)N[C@@H](CCC(=O)O)C(=O)N[C@@H](CCCNC(=N)N)C(=O)N[C@@H](CCCNC(=N)N)C(=O)N[C@@H](CCCNC(=N)N)C(=O)N[C@@H](CCCCN)C(=O)N[C@@H](CCCCN)C(=O)N[C@@H](CCCNC(=N)N)C(=O)NCC(N)=O (H-AAAERRRKKRG-NH2)
- Ki [5, 7]: > 100 nM

Compound: C[C@H](NC(=O)[C@H](CCCNC(=N)N)NC(=O)[C@@H]1CCCN1C(=O)[C@@H](N)[C@@H](C)O)C(=O)N[C@@H](CCCNC(=N)N)C(=O)N[C@@H](CCCNC(=N)N)C(=O)N[C@@H](CCCNC(=N)N)C(=O)N[C@@H](CCCCN)C(=O)N[C@@H](CCCCN)C(=O)N[C@@H](CCCNC(=N)N)C(=O)N[C@@H](CC(=O)O)C(N)=O
- Ki ([5]; read-out: Ki): 56 nM

Compound: C[C@H](NC(=O)[C@H](C)NC(=O)[C@@H](N)[C@@H](C)O)C(=O)N[C@@H](CCC(=O)O)C(=O)N[C@@H](CCCNC(=N)N)C(=O)N[C@@H](CCCNC(=N)N)C(=O)N[C@@H](CCCNC(=N)N)C(=O)N[C@@H](CCCCN)C(=O)N[C@@H](CCCCN)C(=O)N[C@@H](CCCNC(=N)N)C(=O)NCC(N)=O (H-TAAERRRKKRG-NH2)
- Ki [5, 7]: > 100 nM

Compound: C[C@H](NC(=O)[C@H](CCC(=O)O)NC(=O)[C@H](CCCNC(=N)N)NC(=O)[C@@H]1CCCN1C(=O)[C@@H](N)[C@@H](C)O)C(=O)N[C@@H](CCCNC(=N)N)C(=O)N[C@@H](CCCNC(=N)N)C(=O)N[C@@H](CCCCN)C(=O)N[C@@H](CCCCN)C(=O)N[C@@H](CCCNC(=N)N)C(N)=O (H-TPREARRKKR-NH2)
- Ki [5, 7]: > 100 nM

Compound: C[C@@H](O)[C@H](N)C(=O)N1CCC[C@H]1C(=O)N[C@@H](CCC(N)=O)C(=O)N[C@@H](CCCNC(=N)N)C(=O)N[C@@H](CCCNC(N)=O)C(=O)N[C@@H](CCCNC(=N)N)C(=O)N[C@@H](CCCNC(=N)N)C(=O)N[C@@H](CCCNC(=N)N)C(=O)N[C@@H](CCCCN)C(=O)N[C@@H](CCCCN)C(=O)N[C@@H](CCCNC(=N)N)C(=O)NCC(N)=O [TPQR4RRRKKRG]
- Ki [5]: > 100 nM

Compound: C[C@@H](O)[C@H](N)C(=O)N1CCC[C@H]1C(=O)N[C@@H](CCC(N)=O)C(=O)N[C@@H](CCCNC(=N)N)C(=O)N[C@@H](CC(=O)O)C(=O)N[C@@H](CCCNC(=N)N)C(=O)N[C@@H](CCCNC(=N)N)C(=O)N[C@@H](CCCNC(=N)N)C(=O)N[C@@H](CCCCN)C(=O)N[C@@H](CCCCN)C(=O)N[C@@H](CCCNC(=N)N)C(=O)NCC(N)=O (H-TPQRDRRRKKRG-NH2)
- Ki [5, 6]: > 100 nM

Compound: C[C@H](NC(=O)[C@H](CCCNC(=N)N)NC(=O)[C@H](CCC(N)=O)NC(=O)[C@@H]1CCCN1C(=O)[C@@H](N)[C@@H](C)O)C(=O)N[C@@H](CCCNC(=N)N)C(=O)N[C@@H](CCCNC(=N)N)C(=O)N[C@@H](CCCNC(=N)N)C(=O)N[C@@H](CCCCN)C(=O)N[C@@H](CCCCN)C(=O)N[C@@H](CCCNC(=N)N)C(=O)N[C@H](CCCCN)C(N)=O (H-TPQRARRRKKR[dK]-NH2)
- Ki [5, 6]: > 100 nM

Compound: C[C@H](NC(=O)[C@@H](N)[C@@H](C)O)C(=O)N[C@@H](CCCNC(=N)N)C(=O)N[C@@H](CCC(=O)O)C(=O)N[C@@H](CCCNC(=N)N)C(=O)N[C@@H](CCCNC(=N)N)C(=O)N[C@@H](CCCNC(=N)N)C(=O)N[C@@H](CCCCN)C(=O)N[C@@H](CCCCN)C(=O)N[C@@H](CCCNC(=N)N)C(N)=O (H-TARERRRKKR-NH2)
- Ki [5, 7]: > 100 nM

Compound: CC(C)[C@H](NC(=O)[C@H](CCCNC(=N)N)NC(=O)[C@H](CCCCN)NC(=O)[C@H](CCCCN)NC(=O)[C@H](C)NC(=O)[C@H](C)NC(=O)[C@H](C)NC(=O)[C@H](CCC(=O)O)NC(=O)[C@H](CCCNC(=N)N)NC(=O)[C@@H]1CCCN1C(=O)[C@@H](N)[C@@H](C)O)C(N)=O (H-TPREAAAKKRV-NH2)
- Ki [5, 7]: > 100 nM

Compound: C[C@@H](O)[C@H](N)C(=O)N1CCC[C@H]1C(=O)N[C@@H](CCC(N)=O)C(=O)N[C@@H](CCCNC(=N)N)C(=O)N[C@H](CCCCN)C(=O)N[C@@H](CCCNC(=N)N)C(=O)N[C@@H](CCCNC(=N)N)C(=O)N[C@@H](CCCNC(=N)N)C(=O)N[C@@H](CCCCN)C(=O)N[C@@H](CCCCN)C(=O)N[C@@H](CCCNC(=N)N)C(=O)NCC(N)=O [TPQRkRRRKKRG]
- Ki [5, 6]: > 100 nM

Compound: C[C@H](NC(=O)[C@H](CCCNC(=N)N)NC(=O)[C@H](CCC(N)=O)NC(=O)[C@@H]1CCCN1C(=O)[C@@H](N)[C@@H](C)O)C(=O)N[C@@H](CCCNC(=N)N)C(=O)N[C@@H](CCCNC(=N)N)C(=O)N[C@@H](CCCNC(=N)N)C(=O)N[C@@H](CCCCN)C(=O)N[C@@H](CCCCN)C(=O)N[C@@H](CCCNC(=N)N)C(=O)N1CCC[C@H]1C(N)=O (H-TPQRARRRKKRP-NH2)
- Ki [5, 6]: > 100 nM
